{
  "source": "patent US6770287B1",
  "about": "“Biocidal cellulosic material” (The Regents of the University of California, priority 2000, dated 2004)",
  "key": {"[1]": {"system": "E. coli", "assay": "AATCC Test Method 100 quantitative antibacterial test (bacterial reduction)", "format": "cell-based, Escherichia coli (ATCC 2666)", "details": "Anti-1 4%, contact time 60 min", "description": "(§1) AATCC Test Method 100 was adopted in this study. According to this test method, four pieces of staked circular fabric swatches 4.8±0.1 (about one grams) were inoculated with 1.0±0.1 milliliter of inoculum in a 250 milliliter jar. The inoculum was a nutrient broth culture containing over 1.0×10^6 clone forming units (CFU) of organisms. After the swatches were inoculated, they were neutralized by 100 milliliter of a 0.02% sodium thiosulfate solution in the jar. The contact time was the time between inoculation and neutralization. The jar was vigorously shaken and the neutralized solution was diluted in serial. The dilutions, usually 100, 101, and 102, were plated on nutrient agar and incubated for 18-24 hours at 37° C. The number of bacteria recovered from the inoculated finished fabrics was counted and compared with that from untreated fabrics. Six log reduction means the total inactivation of bacteria, and one log reduction means that finished fabrics reduced bacteria counts from 106 CFU to 105 CFU.\n(§2) Finished fabrics prepared from solutions containing 1%-6% of monomethylol-5,5-dimethylhydantoin following the protocol set forth in Example 1 with pickup rates below 1% have been tested.\n(§3) Fabrics finished in accordance with the protocol set forth in Example II with Anti-2, i.e., 1,3-dimethylol-5,5-dimethylhydantoin, were also tested with AATCC test method 100, which was briefly described in Example IV. In the tests, a diluted CLOROX® solution containing 0.01 % active chlorine was used to chlorinate the finished fabrics."}, "[2]": {"system": "E. coli", "assay": "AATCC Test Method 147 qualitative antibacterial test (inhibition zone)", "format": "cell-based, Escherichia coli (ATCC 2666)"}, "[3]": {"system": "S. aureus", "assay": "AATCC Test Method 100 quantitative antibacterial test (bacterial reduction)", "format": "cell-based, Staphylococcu aureus (ATCC 5368)", "description": "as §1, §2, §3"}, "[4]": {"details": "Anti-1 1%, #7402, take up 0.14%"}, "[5]": {"details": "Anti-1 2%, #7402, take up 0.07%"}, "[6]": {"details": "Anti-1 4%, #7402, take up 0.45%"}, "[7]": {"details": "Anti-1 6%, #7402, take up 0.70%"}, "[8]": {"details": "Cl 0.01%, #400, Anti-1 4%, contact time 60 min"}},
  "data": [
    {"smiles": "CC1(C)NC(=O)N(CO)C1=O", "note": "[Anti-1, monomethylol-5,5-dimethylhydantoin]", "values": [
      {"measurement": "Bacterial Reduction Rates After fifteen washings E. coli", "setting": "[1]; Cl 0.01%, #400", "result": 6, "unit": "log"},
      {"measurement": "Bacterial Reduction Rates After five Washings E. coli", "setting": "[1]; Cl 0.01%, #400", "result": 6, "unit": "log"},
      {"measurement": "Bacterial Reduction Rates After ten Washings E. coli", "setting": "[1]; Cl 0.01%, #400", "result": 6, "unit": "log"},
      {"measurement": "Bacterial Reduction Rates After twenty washings E. coli", "setting": "[1]; Cl 0.01%, #400", "result": 6, "unit": "log"},
      {"measurement": "Bacterial Reduction Rates After fifteen washings E. coli", "setting": "[1]; Cl 0.01%, #7409", "result": 6, "unit": "log"},
      {"measurement": "Bacterial Reduction Rates After five Washings E. coli", "setting": "[1]; Cl 0.01%, #7409", "result": 6, "unit": "log"},
      {"measurement": "Bacterial Reduction Rates After ten Washings E. coli", "setting": "[1]; Cl 0.01%, #7409", "result": 6, "unit": "log"},
      {"measurement": "Bacterial Reduction Rates After twenty washings E. coli", "setting": "[1]; Cl 0.01%, #7409", "result": 6, "unit": "log"},
      {"measurement": "Bacterial Reduction Rates After fifteen washings E. coli", "setting": "[1]; Cl 0.1%, #400", "result": 6, "unit": "log"},
      {"measurement": "Bacterial Reduction Rates After five Washings E. coli", "setting": "[1]; Cl 0.1%, #400", "result": 6, "unit": "log"},
      {"measurement": "Bacterial Reduction Rates After ten Washings E. coli", "setting": "[1]; Cl 0.1%, #400", "result": 6, "unit": "log"},
      {"measurement": "Bacterial Reduction Rates After twenty washings E. coli", "setting": "[1]; Cl 0.1%, #400", "result": 1, "unit": "log"},
      {"measurement": "Bacterial Reduction Rates After fifteen washings E. coli", "setting": "[1]; Cl 0.1%, #7409", "result": 6, "unit": "log"},
      {"measurement": "Bacterial Reduction Rates After five Washings E. coli", "setting": "[1]; Cl 0.1%, #7409", "result": 6, "unit": "log"},
      {"measurement": "Bacterial Reduction Rates After ten Washings E. coli", "setting": "[1]; Cl 0.1%, #7409", "result": 6, "unit": "log"},
      {"measurement": "Bacterial Reduction Rates After twenty washings E. coli", "setting": "[1]; Cl 0.1%, #7409", "result": 6, "unit": "log"},
      {"measurement": "Bacterial Reduction Rates After fifteen washings E. coli", "setting": "[1]; Cl 0.25%, #400", "result": 1, "unit": "log"},
      {"measurement": "Bacterial Reduction Rates After five Washings E. coli", "setting": "[1]; Cl 0.25%, #400", "result": 6, "unit": "log"},
      {"measurement": "Bacterial Reduction Rates After ten Washings E. coli", "setting": "[1]; Cl 0.25%, #400", "result": 2, "unit": "log"},
      {"measurement": "Bacterial Reduction Rates After twenty washings E. coli", "setting": "[1]; Cl 0.25%, #400", "result": 1, "unit": "log"},
      {"measurement": "Bacterial Reduction Rates After fifteen washings E. coli", "setting": "[1]; Cl 0.25%, #7409", "result": 6, "unit": "log"},
      {"measurement": "Bacterial Reduction Rates After five Washings E. coli", "setting": "[1]; Cl 0.25%, #7409", "result": 6, "unit": "log"},
      {"measurement": "Bacterial Reduction Rates After ten Washings E. coli", "setting": "[1]; Cl 0.25%, #7409", "result": 6, "unit": "log"},
      {"measurement": "Bacterial Reduction Rates After twenty washings E. coli", "setting": "[1]; Cl 0.25%, #7409", "result": 1, "unit": "log"},
      {"measurement": "Biocidal results against E. coli after being activated", "setting": "[2]; Cotton cloth #400, add-on 1.43%", "result": ">2.0", "unit": "mm"},
      {"measurement": "Biocidal results against E. coli after being activated", "setting": "[2]; Dacron/Cotton 65/35 #7402, add-on 1.19%", "result": ">10", "unit": "mm"},
      {"measurement": "Biocidal results against E. coli after being activated", "setting": "[2]; Rayon, add-on 1.21%", "result": ">1.0", "unit": "mm"},
      {"measurement": "Biocidal results against E. coli after being activated", "setting": "[2]; Terry cloth 100% Cotton, add-on 1.40%", "result": ">10", "unit": "mm"},
      {"measurement": "Bacterial reduction rates on contact time 0 min S. aureus", "setting": "[3]; Anti-1 1%, #400, take up 0.65%", "result": "No"},
      {"measurement": "Bacterial reduction rates on contact time 30 min S. aureus", "setting": "[3]; Anti-1 1%, #400, take up 0.65%", "result": 1, "unit": "log"},
      {"measurement": "Bacterial reduction rates on contact time 60 min S. aureus", "setting": "[3]; Anti-1 1%, #400, take up 0.65%", "result": "No"},
      {"measurement": "Bacterial reduction rates on contact time 0 min S. aureus", "setting": "[3]; [4]", "result": "No"},
      {"measurement": "Bacterial reduction rates on contact time 30 min S. aureus", "setting": "[3]; [4]", "result": "No"},
      {"measurement": "Bacterial reduction rates on contact time 60 min S. aureus", "setting": "[3]; [4]", "result": "No"},
      {"measurement": "Bacterial reduction rates on contact time 0 min S. aureus", "setting": "[3]; Anti-1 2%, #400, take up 0.03%", "result": 1, "unit": "log"},
      {"measurement": "Bacterial reduction rates on contact time 30 min S. aureus", "setting": "[3]; Anti-1 2%, #400, take up 0.03%", "result": 6, "unit": "log"},
      {"measurement": "Bacterial reduction rates on contact time 60 min S. aureus", "setting": "[3]; Anti-1 2%, #400, take up 0.03%", "result": 6, "unit": "log"},
      {"measurement": "Bacterial reduction rates on contact time 0 min S. aureus", "setting": "[3]; [5]", "result": "No"},
      {"measurement": "Bacterial reduction rates on contact time 30 min S. aureus", "setting": "[3]; [5]", "result": 1, "unit": "log"},
      {"measurement": "Bacterial reduction rates on contact time 60 min S. aureus", "setting": "[3]; [5]", "result": 6, "unit": "log"},
      {"measurement": "Bacterial reduction rates on contact time 0 min S. aureus", "setting": "[3]; Anti-1 4%, #400, take up 0.47%", "result": 6, "unit": "log"},
      {"measurement": "Bacterial reduction rates on contact time 30 min S. aureus", "setting": "[3]; Anti-1 4%, #400, take up 0.47%", "result": 6, "unit": "log"},
      {"measurement": "Bacterial reduction rates on contact time 60 min S. aureus", "setting": "[3]; Anti-1 4%, #400, take up 0.47%", "result": 6, "unit": "log"},
      {"measurement": "Bacterial reduction rates on contact time 0 min S. aureus", "setting": "[3]; [6]", "result": 6, "unit": "log"},
      {"measurement": "Bacterial reduction rates on contact time 30 min S. aureus", "setting": "[3]; [6]", "result": 6, "unit": "log"},
      {"measurement": "Bacterial reduction rates on contact time 60 min S. aureus", "setting": "[3]; [6]", "result": 6, "unit": "log"},
      {"measurement": "Bacterial reduction rates on contact time 0 min S. aureus", "setting": "[3]; Anti-1 6%, #400, take up 0.70%", "result": 6, "unit": "log"},
      {"measurement": "Bacterial reduction rates on contact time 30 min S. aureus", "setting": "[3]; Anti-1 6%, #400, take up 0.70%", "result": 6, "unit": "log"},
      {"measurement": "Bacterial reduction rates on contact time 60 min S. aureus", "setting": "[3]; Anti-1 6%, #400, take up 0.70%", "result": 6, "unit": "log"},
      {"measurement": "Bacterial reduction rates on contact time 0 min S. aureus", "setting": "[3]; [7]", "result": 6, "unit": "log"},
      {"measurement": "Bacterial reduction rates on contact time 30 min S. aureus", "setting": "[3]; [7]", "result": 6, "unit": "log"},
      {"measurement": "Bacterial reduction rates on contact time 60 min S. aureus", "setting": "[3]; [7]", "result": 6, "unit": "log"},
      {"measurement": "Bacterial Reduction Rates After fifteen washings S. aur.", "setting": "[3]; [8]", "result": 6, "unit": "log"},
      {"measurement": "Bacterial Reduction Rates After five Washings S. aur.", "setting": "[3]; [8]", "result": 6, "unit": "log"}
    ]}
  ]
}
